Assay results as given in US7645781B2, “N-aryl-2-oxazolidinone-5-carboxamides and their derivatives” (Pfizer Inc, priority 2002, dated 2010).
Converted amounts (≈) assume the structure as drawn.

Test system: Staphylococcus aureus (SAUR 9213)
Experiment: MIC by standard agar dilution method
Type: cell-based
Details: Mueller Hinton agar, incubated overnight at 35° C.
Source text: The antibacterial agents of this invention have useful activity against a variety of organisms. The in vitro activity of compounds of this invention can be assessed by standard testing procedures such as the determination of minimum inhibitory concentration (MIC) by agar dilution as described in “Approved Standard. Methods for Dilution Antimicrobial Susceptibility Tests for Bacteria That Grow Aerobically”, 3rd. ed., published 1993 by the National Committee for Clinical Laboratory Standards, Villanova, Pa., USA. The in vitro MICs of test compounds are determined by a standard agar dilution method. A stock drug solution of each analog is prepared in the preferred solvent, usually DMSO:H2O (1:3). Serial 2-fold dilutions of each sample are made using 1.0 ml aliquots of sterile distilled water. To each 1.0 ml aliquot of drug is added 9 ml of molten Mueller Hinton agar medium. The drug-supplemented agar is mixed, poured into 15×100 mm petri dishes, and allowed to solidify and dry prior to inoculation. Vials of each of the test organisms are maintained frozen in the vapor phase of a liquid nitrogen freezer. Test cultures are grown overnight at 35° C. on the medium appropriate for the organism. Colonies are harvested with a sterile swab, and cell suspensions are prepared in Trypticase Soy broth (TSB) to equal the turbidity of a 0.5 McFarland standard. A 1:20 dilution of each suspension is made in TSB. The plates containing the drug supplemented agar are inoculated with a 0.001 ml drop of the cell suspension using a Steers replicator, yielding approximately 10^4 to 10^5 cells per spot. The plates are incubated overnight at 35° C. Following incubation the Minimum Inhibitory Concentration (MIC μg/ml), the lowest concentration of drug that inhibits visible growth of the organism, is read and recorded.

SMILES | MIC [µg/mL]
N=S1(=O)CCC(c2ccc(N3C[C@H](C(N)=O)OC3=O)cc2F)CC1 (stereo in doubt) [Example 56, (5R)-3-[4-(cis-1-Imino-1-oxido-1,1,3,4,5,6-hexahydro-2H-thiopyran-4-yl)-3-fluorophenyl]-2-oxo-5-oxazolidinecarboxamide] | 4 (≈ 11.3 µM)

Same assay, conditions: Mueller Hinton agar, incubated overnight at 35° C., read-out: MIC

SMILES | MIC [µg/mL]
O=C1C=CN(c2ccc(N3C[C@H](C(=O)NCCF)OC3=O)cc2)CC1 [Example 75, (5R)-N-(2-Fluoroethyl)-3-[4-(4-oxo-3,4-dihydro-1(2H)-pyridinyl)phenyl]-2-oxo-5-oxazolidinecarboxamide] | 8 (≈ 23 µM)
CNC(=O)[C@H]1CN(c2ccc3c(c2)OCC(=O)N3C)C(=O)O1 [Example 60, (5R)-N-Methyl-3-(3,4-dihydro-4-methyl-3-oxo-2H-1,4-benzoxazin-7-yl)-2-oxo-5-oxazolidinecarboxamide] | 2 (≈ 6.55 µM)
CC(C)n1c(=O)oc2cc(N3C[C@H](C(N)=O)OC3=O)cc(F)c21 [Example 88, (5R)-3-(4-Fluoro-3-isopropyl-2-oxo-2,3-dihydro-6-benzoxazolyl)-2-oxo-5-oxazolidinecarboxamide] | 4 (≈ 12.4 µM)
CN1C(=O)CSc2cc(N3C[C@H](C(N)=O)OC3=O)ccc21 [Example 62, (5R)-3-(3,4-Dihydro-4-methyl-3-oxo-2H-1,4-benzothiazin-7-yl)-2-oxo-5-oxazolidinecarboxamide] | 4 (≈ 13 µM)
CCNC(=O)[C@H]1CN(c2ccc(N3C=CC(=O)CC3)c(F)c2)C(=O)O1 [Example 71, (5R)-N-Ethyl-3-[4-(4-oxo-3,4-dihydro-1(2H)-pyridinyl)-3-fluorophenyl]-2-oxo-5-oxazolidinecarboxamide] | 4 (≈ 11.5 µM)
CNC(=O)[C@H]1CN(c2cc(F)c3c(c2)oc(=O)n3C(C)C)C(=O)O1 [Example 91, (5R)-3-(4-Fluoro-3-isopropyl-2-oxo-2,3-dihydro-6-benzoxazolyl)-N-methyl-2-oxo-5-oxazolidinecarboxamide] | 4 (≈ 11.9 µM)
CNC(=O)[C@H]1CN(c2ccc(N3C=CC(=O)CC3)c(F)c2)C(=O)O1 [Example 70, (5R)-N-Methyl-3-[4-(4-oxo-3,4-dihydro-1(2H)-pyridinyl)-3-fluorophenyl]-2-oxo-5-oxazolidinecarboxamide] | 2 (≈ 6 µM)
CN1C(=S)CSc2cc(N3C[C@H](C(N)=O)OC3=O)ccc21 [Example 84, 3-(4-Methyl-3-thioxo-3,4-dihydro-2H-1,4-benzothiazin-7-yl)-2-oxo-5-oxazolidinecarboxamide] | 2 (≈ 6.18 µM)
CNC(=O)[C@H]1CN(c2ccc3c(c2)OC(F)(F)C(=O)N3C)C(=O)O1 [Example 81, (5R)-N-Methyl-3-(2,2-difluoro-4-methyl-3,4-dihydro-3-oxo-2H-1,4-benzoxazin-7-yl)-2-oxo-5-oxazolidinecarboxamide] | 4 (≈ 11.7 µM)
CNC(=O)[C@H]1CN(c2ccc3c(c2)CCC(=O)N3C)C(=O)O1 [Example 68, (5R)-N-Methyl-3-(1-methyl-2-oxo-1,2,3,4-tetrahydroquinolin-6-yl)-2-oxo-5-oxazolidinecarboxamide] | 4 (≈ 13.2 µM)
Cn1c(=O)oc2cc(N3C[C@H](C(N)=O)OC3=O)cc(F)c21 [Example 86, (5R)-3-(4-Fluoro-3-methyl-2-oxo-2,3-dihydro-6-benzoxazolyl)-2-oxo-5-oxazolidinecarboxamide] | 4 (≈ 13.5 µM)
NC(=O)[C@H]1CN(c2cc(F)c(N3C=CS(=O)(=O)CC3)c(F)c2)C(=O)O1 [Example 65, (5R)-3-[4-(1,1-dioxido-2,3-dihydro-4H-1,4-thiazin-4-yl)-3,5-difluorophenyl]-2-oxo-5-oxazolidinecarboxamide] | 2 to 4 (≈ 5.36 to 10.7 µM)
CCn1c(=O)oc2cc(N3C[C@H](C(N)=O)OC3=O)cc(F)c21 [Example 87, (5R)-3-(3-Ethyl-4-fluoro-2-oxo-2,3-dihydro-6-benzoxazolyl) -2-oxo-5-oxazolidinecarboxamide] | 2 (≈ 6.47 µM)
CN1C(=O)CCc2cc(N3C[C@H](C(N)=O)OC3=O)ccc21 [Example 67, (5R)-3-(1-Methyl-2-oxo-1,2,3,4-tetrahydroquinolin-6-yl)-2-oxo-5-oxazolidinecarboxamide] | 2 (≈ 6.91 µM)
COC(=O)N1CC(C)(c2c(F)cc(N3C[C@H](C(N)=O)OC3=O)cc2F)C1 [Example 57, (5R)-(−)-3-[3,5-Difluoro-4-(1-methoxycarbonyl-3-methylazetidin-3-yl)phenyl]-2-oxo-5-oxazolidinecarboxamide] | 8 (≈ 21.7 µM)
CNC(=O)[C@H]1CN(c2ccc3c(c2)SCC(=O)N3C)C(=O)O1 [Example 63, (5R)-N-Methyl-3-(3,4-dihydro-4-methyl-3-oxo-2H-1,4-benzothiazin-7-yl)-2-oxo-5-oxazolidinecarboxamide] | 4 (≈ 12.4 µM)

SMILES | MIC [µg/mL]
NC(=O)[C@H]1CN(c2ccc(N3C=CC(=O)CC3)c(F)c2)C(=O)O1 [Example 69, (5R)-3-[4-(4-Oxo-3,4-dihydro-1(2H)-pyridinyl)-3-fluorophenyl]-2-oxo-5-oxazolidinecarboxamide] | 2 (≈ 6.26 µM)
CNC(=O)[C@H]1CN(c2ccc([C@H]3CC[S@+]([O-])CC3)c(F)c2)C(=O)O1 [Example 85, (5R)-N-Methyl-3-[3-fluoro-4-(trans-tetrahydro-1-oxido-2H-thiopyran-4-yl)phenyl]-2-oxo-5-oxazolidinecarboxamide] | 2 (≈ 5.64 µM)
CNC(=O)[C@H]1CN(c2cc(F)c(C3(C)CN(C(=O)OC)C3)c(F)c2)C(=O)O1 [Example 58, (5R)-(−)-N-Methyl-3-[3,5-difluoro-4-(1-methoxycarbonyl-3-methylazetidin-3-yl)phenyl]-2-oxo-5-oxazolidinecarboxamide] | 8 (≈ 20.9 µM)
CNC(=O)[C@H]1CN(c2cc(F)c3c(c2)oc(=O)n3C)C(=O)O1 [Example 89, (5R)-3-(4-Fluoro-3-methyl-2-oxo-2,3-dihydro-6-benzoxazolyl)-N-methyl-2-oxo-5-oxazolidinecarboxamide] | 16 (≈ 51.7 µM)
CN1C(=O)C(F)(F)Oc2cc(N3C[C@H](C(N)=O)OC3=O)ccc21 [Example 80, (5R)-3-(2,2-Difluoro-4-methyl-3,4-dihydro-3-oxo-2H-1,4-benzoxazin-7-yl)-2-oxo-5-oxazolidinecarboxamide] | 2 (≈ 6.11 µM)
NC(=O)[C@H]1CN(c2ccc(N3C=CC(=O)CC3)cc2)C(=O)O1 [Example 72, (5R)-3-[4-(4-Oxo-3,4-dihydro-1(2H)-pyridinyl)phenyl]-2-oxo-5-oxazolidinecarboxamide] | 2 (≈ 6.64 µM)
CCn1c(=O)oc2cc(N3C[C@H](C(=O)NC)OC3=O)cc(F)c21 [Example 90, (5R)-3-(3-Ethyl-4-fluoro-2-oxo-2,3-dihydro-6-benzoxazolyl)-N-methyl-2-oxo-5-oxazolidinecarboxamide] | 4 (≈ 12.4 µM)
NC(=O)[C@H]1CN(c2ccc(N3C=CC(=NO)CC3)c(F)c2)C(=O)O1 (racemic) [Example 79, (5R)-3-[4-[3,4-Dihydro-4-(hydroxyimino)-1(2H)-pyridinyl]-3-fluorophenyl]-2-oxo-5-oxazolidinecarboxamide] | 1 (≈ 2.99 µM)
CNC(=O)[C@H]1CN(c2ccc(N3C=CC(=O)CC3)cc2)C(=O)O1 [Example 73, (5R)-N-Methyl-3-[4-(4-oxo-3,4-dihydro-1(2H)-pyridinyl)phenyl]-2-oxo-5-oxazolidinecarboxamide] | 2 (≈ 6.34 µM)
CN1C(=O)COc2cc(N3C[C@H](C(N)=O)OC3=O)ccc21 [Example 59, (5R)-3-(3,4-Dihydro-4-methyl-3-oxo-2H-1,4-benzoxazin-7-yl) -2-oxo-5-oxazolidinecarboxamide] | 2 (≈ 6.87 µM)
CNC(=O)[C@H]1CN(c2cc(F)c(N3C=CC(=O)CC3)c(F)c2)C(=O)O1 [Example 77, (5R)-N-Methyl-3-[4-(4-oxo-3,4-dihydro-1(2H)-pyridinyl)-3,5-difluorophenyl]-2-oxo-5-oxazolidinecarboxamide] | 2 (≈ 5.69 µM)
CNC(=O)[C@H]1CN(c2cc(F)c([C@H]3CC[S@+]([O-])CC3)c(F)c2)C(=O)O1 [Example 48, (5R)-N-Methyl-3-[3,5-difluoro-4-(trans-tetrahydro-1-oxido-2H-thiopyran-4-yl)phenyl]-2-oxo-5-oxazolidinecarboxamide] | 2 (≈ 5.37 µM)
NC(=O)[C@H]1CN(c2cc(F)c(N3C=CC(=O)CC3)c(F)c2)C(=O)O1 [Example 76, (5R)-3-[4-(4-Oxo-3,4-dihydro-1(2H)-pyridinyl)-3,5-difluorophenyl]-2-oxo-5-oxazolidinecarboxamide] | 4 (≈ 11.9 µM)
NC(=O)[C@H]1CN(c2cc(F)c(N3CC=CC3)c(F)c2)C(=O)O1 [Example 66, (5R)-3-[4-(2,5-Dihydro-1H-pyrrol-1-yl)-3,5-difluorophenyl]-2-oxo-5-oxazolidinecarboxamide] | 4 (≈ 12.9 µM)
CN1C(=O)COc2cc(N3C[C@H](C(=O)NCCF)OC3=O)ccc21 [Example 61, (5R)-N-(2-Fluoroethyl)-3-(3,4-dihydro-4-methyl-3-oxo-2H -1,4-benzoxazin-7-yl)-2-oxo-5-oxazolidinecarboxamide] | 8 (≈ 23.7 µM)
NC(=O)[C@H]1CN(c2cc(F)c([C@H]3CC[S@+]([O-])CC3)c(F)c2)C(=O)O1 [Example 47, (5R)-(−)-3-[3,5-Difluoro-4-(trans-tetrahydro-1-oxido-2H-thiopyran-4-yl)phenyl]-2-oxo-5-oxazolidinecarboxamide] | 4 (≈ 11.2 µM)
